Calls of active or inactive are those of the source. No cut-off for these calls is given here. Non-standard residues stand in square brackets, D forms with d. Residues, ends and D or L forms follow the SMILES beside them. *: point of attachment. Benzoyl(4-OPh(4-CONH2)) = NC(=O)c1ccc(Oc2ccc(C(=O)*)cc2)cc1; NMeE = CN[C@@H](CCC(=O)O)C(=O)O; β3hP = O=C(O)C[C@@H]1CCCN1; Dab = NCC[C@H](N)C(=O)O; Ava = NCCCCC(=O)O
What was measured:
[1] = Solubility of the compound in acetate buffer at pH 4.0 by HPLC analysis; format: physicochemical
CYP2C9 = CYP2C9 (Homo sapiens, UniProt P11712); assay: Inhibition of CYP2C9 in human liver microsomes at 10 uM using diclofenac as substrate preincubated for 5 mins followed by addition of NADPH measured after 5 mins by LC/MS/MS analysis relative to control; format: ADME, Microsome; conditions: probe diclofenac, time 10 min
Sequence of CYP2C9 (P11712 whole entry): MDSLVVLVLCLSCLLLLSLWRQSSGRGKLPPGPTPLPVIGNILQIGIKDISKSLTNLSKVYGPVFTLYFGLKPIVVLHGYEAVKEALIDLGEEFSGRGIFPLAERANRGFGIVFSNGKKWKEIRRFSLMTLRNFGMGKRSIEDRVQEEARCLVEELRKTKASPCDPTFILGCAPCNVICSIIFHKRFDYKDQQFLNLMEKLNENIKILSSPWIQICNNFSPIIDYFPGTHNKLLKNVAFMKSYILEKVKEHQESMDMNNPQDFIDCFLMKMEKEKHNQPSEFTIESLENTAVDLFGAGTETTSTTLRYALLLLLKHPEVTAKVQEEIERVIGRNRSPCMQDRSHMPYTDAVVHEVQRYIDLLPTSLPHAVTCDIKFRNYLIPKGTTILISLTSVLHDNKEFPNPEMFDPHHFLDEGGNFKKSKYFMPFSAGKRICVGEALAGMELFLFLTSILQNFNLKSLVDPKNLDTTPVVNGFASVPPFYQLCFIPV

CYP3A4 = CYP3A4 (Homo sapiens, UniProt P08684); assay: Inhibition of CYP3A4 in human liver microsomes at 10 uM using midazolam as substrate preincubated for 5 mins followed by addition of NADPH measured after 5 mins by LC/MS/MS analysis relative to control; format: ADME, Microsome; conditions: probe midazolam
Sequence of CYP3A4 (P08684 whole entry): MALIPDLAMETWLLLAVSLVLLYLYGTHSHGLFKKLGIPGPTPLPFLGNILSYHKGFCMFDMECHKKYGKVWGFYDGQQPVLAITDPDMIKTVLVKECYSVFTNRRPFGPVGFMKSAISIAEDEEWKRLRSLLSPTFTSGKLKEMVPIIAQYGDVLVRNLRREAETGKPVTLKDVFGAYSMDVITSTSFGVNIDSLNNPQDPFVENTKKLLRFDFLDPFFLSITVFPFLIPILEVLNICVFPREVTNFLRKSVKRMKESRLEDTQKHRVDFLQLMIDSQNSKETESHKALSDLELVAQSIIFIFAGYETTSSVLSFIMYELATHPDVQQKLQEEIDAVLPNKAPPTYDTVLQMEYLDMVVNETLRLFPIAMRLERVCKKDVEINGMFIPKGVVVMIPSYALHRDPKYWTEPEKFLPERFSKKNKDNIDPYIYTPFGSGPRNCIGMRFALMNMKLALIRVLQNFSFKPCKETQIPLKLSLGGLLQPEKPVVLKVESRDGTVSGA

Neutrophil collagenase = Neutrophil collagenase (Homo sapiens, UniProt P22894)
Sequence of Neutrophil collagenase (P22894 whole entry): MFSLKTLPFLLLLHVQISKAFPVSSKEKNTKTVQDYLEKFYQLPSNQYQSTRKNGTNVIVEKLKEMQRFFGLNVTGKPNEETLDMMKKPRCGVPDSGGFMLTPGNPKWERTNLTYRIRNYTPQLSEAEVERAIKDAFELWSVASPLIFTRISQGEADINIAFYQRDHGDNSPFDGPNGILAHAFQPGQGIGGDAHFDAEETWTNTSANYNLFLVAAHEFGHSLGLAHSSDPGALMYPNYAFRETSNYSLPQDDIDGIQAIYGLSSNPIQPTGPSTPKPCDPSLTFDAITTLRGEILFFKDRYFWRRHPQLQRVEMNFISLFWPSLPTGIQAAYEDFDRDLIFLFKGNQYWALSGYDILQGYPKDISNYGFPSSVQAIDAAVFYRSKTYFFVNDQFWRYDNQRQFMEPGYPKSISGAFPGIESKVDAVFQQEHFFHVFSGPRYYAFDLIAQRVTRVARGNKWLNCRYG

physchem [2] = conditions: phosphate buffer, pH 9
[3] = Protein binding in human serum assessed as free fraction at 10 ug/ml incubated for 6 hrs by equilibrium dialysis based LC-MS/MS assay; format: ADME, cell-free; conditions: at 10 µg/mL
Matrilysin = biological target: T1, Matrilysin (Homo sapiens, UniProt P09237)
T1 sequence (P09237 whole entry): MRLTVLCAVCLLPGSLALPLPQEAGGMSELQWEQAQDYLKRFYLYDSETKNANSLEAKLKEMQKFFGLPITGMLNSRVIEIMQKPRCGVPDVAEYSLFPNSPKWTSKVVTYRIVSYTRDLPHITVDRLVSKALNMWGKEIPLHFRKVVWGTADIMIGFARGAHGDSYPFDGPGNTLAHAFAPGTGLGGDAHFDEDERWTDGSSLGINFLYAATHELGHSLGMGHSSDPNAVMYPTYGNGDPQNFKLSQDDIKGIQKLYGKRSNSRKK

Interstitial collagenase = biological target: T2, Interstitial collagenase (Homo sapiens, UniProt P03956); assay: Inhibition of recombinant human MMP1 using MOCAc-Lys-Pro-Leu-Gly-Leu-A2pr(Dnp)-Ala-Arg-NH2 as substrate preincubated for 15 mins followed by substrate addition by fluroscence based assay
T2 sequence (P03956 whole entry): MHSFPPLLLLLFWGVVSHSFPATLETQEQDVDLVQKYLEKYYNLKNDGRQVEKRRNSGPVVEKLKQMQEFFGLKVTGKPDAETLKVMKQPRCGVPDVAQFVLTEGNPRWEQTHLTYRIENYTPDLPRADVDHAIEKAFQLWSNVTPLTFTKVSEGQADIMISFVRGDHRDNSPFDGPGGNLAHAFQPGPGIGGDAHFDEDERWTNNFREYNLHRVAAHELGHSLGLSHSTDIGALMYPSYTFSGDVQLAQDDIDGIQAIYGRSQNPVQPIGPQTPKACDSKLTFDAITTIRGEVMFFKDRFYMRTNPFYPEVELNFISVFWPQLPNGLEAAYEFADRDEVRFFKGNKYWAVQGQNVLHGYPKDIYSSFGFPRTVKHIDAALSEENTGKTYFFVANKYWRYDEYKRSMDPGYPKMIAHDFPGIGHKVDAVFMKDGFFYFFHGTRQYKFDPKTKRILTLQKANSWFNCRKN

CYP2C19 = CYP2C19 (Homo sapiens, UniProt P33261); assay: Inhibition of CYP2C19 in human liver microsomes at 10 uM using mephenytoin as substrate preincubated for 5 mins followed by addition of NADPH measured after 10 mins by LC/MS/MS analysis relative to control; format: ADME, Microsome; conditions: probe mephenytoin, time 15 min
Sequence of CYP2C19 (P33261 whole entry): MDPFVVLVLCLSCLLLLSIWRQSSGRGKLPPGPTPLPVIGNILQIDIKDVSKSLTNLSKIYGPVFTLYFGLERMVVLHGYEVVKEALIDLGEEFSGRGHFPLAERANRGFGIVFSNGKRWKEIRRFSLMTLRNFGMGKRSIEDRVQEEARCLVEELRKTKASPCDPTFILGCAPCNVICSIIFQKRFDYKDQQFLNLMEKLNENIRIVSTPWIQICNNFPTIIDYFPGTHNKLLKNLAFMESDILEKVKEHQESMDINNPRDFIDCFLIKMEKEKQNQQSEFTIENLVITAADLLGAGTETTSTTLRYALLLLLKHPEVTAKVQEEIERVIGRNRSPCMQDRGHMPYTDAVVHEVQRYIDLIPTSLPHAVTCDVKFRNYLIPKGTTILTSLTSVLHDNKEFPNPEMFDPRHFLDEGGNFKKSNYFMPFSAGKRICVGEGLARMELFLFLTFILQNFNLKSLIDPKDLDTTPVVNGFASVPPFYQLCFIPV

[4] = Solubility of the compound in phosphate buffer at pH 9 by HPLC analysis; format: physicochemical
[5] = Chemical stability of the compound in acetate buffer at pH 4.0 assessed as residual rate incubated for 2 weeks by HPLC analysis; format: physicochemical; conditions: read-out: Stability
Mus musculus [6] = assay: Antifibrotic activity in C57BL/6N mouse model of bleomycin-induced idiopathic pulmonary fibrosis assessed as reduction of total collagen content at 0.03 mg/kg/day, sc via osmotic pumps dosed for 14 days; format: functional, organism-based; conditions: time 14.0 day
HepG2 [7] = assay: Cytotoxicity against human HepG2 cells assessed as reduction in cell viability at 50 uM after 48 hrs by CCK8 assay; format: functional
[8] = biological target: Matrix metalloproteinase-14 (Homo sapiens, UniProt P50281); assay: Inhibition of recombinant human MMP14 using MOCAc-Lys-Pro-Leu-Gly-Leu-A2pr(Dnp)-Ala-Arg-NH2 as substrate preincubated for 15 mins followed by substrate addition by fluroscence based assay
[9] = biological target: Voltage-gated inwardly rectifying potassium channel KCNH2 (Homo sapiens, UniProt Q12809); assay: Inhibition of human ERG expressed in CHO cells by Qpatch-clamp method; format: toxicity, cell-based
Sequence of Voltage-gated inwardly rectifying potassium channel KCNH2 (Q12809 whole entry): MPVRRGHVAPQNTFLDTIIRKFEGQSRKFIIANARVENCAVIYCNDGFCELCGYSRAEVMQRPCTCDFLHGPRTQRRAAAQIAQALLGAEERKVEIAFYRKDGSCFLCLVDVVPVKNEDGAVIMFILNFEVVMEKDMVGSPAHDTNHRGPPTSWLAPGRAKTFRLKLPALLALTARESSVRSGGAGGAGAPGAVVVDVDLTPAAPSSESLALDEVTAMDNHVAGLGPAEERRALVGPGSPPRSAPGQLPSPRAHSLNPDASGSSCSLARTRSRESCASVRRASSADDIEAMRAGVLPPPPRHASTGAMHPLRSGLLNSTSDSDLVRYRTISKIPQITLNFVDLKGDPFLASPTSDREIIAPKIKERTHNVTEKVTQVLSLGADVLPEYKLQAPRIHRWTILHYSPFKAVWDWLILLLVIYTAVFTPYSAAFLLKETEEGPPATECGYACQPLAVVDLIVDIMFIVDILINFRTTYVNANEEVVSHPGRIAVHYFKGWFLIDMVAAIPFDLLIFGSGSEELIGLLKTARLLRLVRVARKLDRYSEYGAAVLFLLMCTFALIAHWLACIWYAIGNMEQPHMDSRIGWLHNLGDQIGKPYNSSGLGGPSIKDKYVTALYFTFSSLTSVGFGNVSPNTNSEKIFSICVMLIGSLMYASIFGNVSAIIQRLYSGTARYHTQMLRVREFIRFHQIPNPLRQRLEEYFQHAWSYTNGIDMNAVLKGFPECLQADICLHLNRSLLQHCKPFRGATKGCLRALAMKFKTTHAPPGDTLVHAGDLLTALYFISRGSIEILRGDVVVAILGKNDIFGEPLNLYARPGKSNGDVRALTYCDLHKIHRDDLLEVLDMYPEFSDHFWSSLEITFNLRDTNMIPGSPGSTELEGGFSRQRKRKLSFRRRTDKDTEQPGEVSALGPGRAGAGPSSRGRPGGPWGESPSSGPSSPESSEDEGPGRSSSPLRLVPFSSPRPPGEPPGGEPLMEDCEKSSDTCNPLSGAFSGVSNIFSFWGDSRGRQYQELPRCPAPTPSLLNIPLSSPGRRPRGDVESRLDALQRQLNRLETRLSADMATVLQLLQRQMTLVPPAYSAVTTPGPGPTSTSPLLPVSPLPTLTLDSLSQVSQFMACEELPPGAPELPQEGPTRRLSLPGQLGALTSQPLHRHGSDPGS

CYP1A2 = CYP1A2 (Homo sapiens, UniProt P05177); assay: Inhibition of CYP1A2 in human liver microsomes at 10 uM using phenacetin as substrate for 5 mins followed by NADPH addition and measured after 10 mins by LC/MS/MS analysis relative to control; format: ADME, Microsome; conditions: probe phenacetin, time 15 min
Sequence of CYP1A2 (P05177 whole entry): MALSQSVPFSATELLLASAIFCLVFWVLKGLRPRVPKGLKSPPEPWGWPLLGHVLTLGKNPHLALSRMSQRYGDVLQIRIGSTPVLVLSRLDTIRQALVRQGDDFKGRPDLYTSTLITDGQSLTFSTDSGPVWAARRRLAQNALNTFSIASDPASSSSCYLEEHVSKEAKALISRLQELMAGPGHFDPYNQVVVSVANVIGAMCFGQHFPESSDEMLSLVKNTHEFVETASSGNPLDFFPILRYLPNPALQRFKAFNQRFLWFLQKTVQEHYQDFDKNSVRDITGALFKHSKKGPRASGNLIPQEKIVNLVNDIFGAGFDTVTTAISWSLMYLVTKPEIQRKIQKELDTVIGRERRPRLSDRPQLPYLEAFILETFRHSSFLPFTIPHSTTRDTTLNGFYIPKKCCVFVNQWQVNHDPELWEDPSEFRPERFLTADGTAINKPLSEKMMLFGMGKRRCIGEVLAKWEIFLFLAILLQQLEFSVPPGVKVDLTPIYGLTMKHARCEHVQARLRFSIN

[10] = Half life in fasted Sprague-Dawley rat at 1 mg/kg, iv by LC-MS/MS analysis; format: ADME, organism-based; conditions: in vivo
[11] = Metabolic stability in human hepatocytes assessed as parent compound remaining measured after 1 hr by LC-MS/MS analysis; format: ADME, cell-based, Hepatocyte; conditions: read-out: Stability
[12] = Volume of distribution at steady state in fasted Sprague-Dawley rat at 1 mg/kg, iv by LC-MS/MS analysis; format: ADME, organism-based; conditions: in vivo, read-out: Vdss
physchem [13] = conditions: phosphate buffer, pH 7.4
CYP2D6 = CYP2D6 (Homo sapiens, UniProt P10635); assay: Inhibition of CYP2D6 in human liver microsomes at 10 uM using bufuralol as substrate preincubated for 5 mins followed by addition of NADPH measured after 10 mins by LC/MS/MS analysis relative to control; format: ADME, Microsome; conditions: probe bufuralol, time 15 min
[14] = Metabolic stability in human serum assessed as parent compound remaining incubated for 6 hrs by LC-MS/MS analysis; format: ADME, cell-free; conditions: read-out: Stability
[15] = Solubility of the compound in phosphate buffer at pH 7.4 by HPLC analysis; format: physicochemical
[16] = Clearance in fasted Sprague-Dawley rat at 1 mg/kg, iv by LC-MS/MS analysis; format: ADME, organism-based; conditions: in vivo
physchem [17] = conditions: buffer, pH 7.4
Stromelysin-1 = Stromelysin-1 (Homo sapiens, UniProt P08254); assay: Inhibition of recombinant human MMP3 using MOCAc-Lys-Pro-Leu-Gly-Leu-A2pr(Dnp)-[…] as substrate preincubated for 15 mins followed by substrate addition by fluroscence based assay
Sequence of Stromelysin-1 (P08254 whole entry): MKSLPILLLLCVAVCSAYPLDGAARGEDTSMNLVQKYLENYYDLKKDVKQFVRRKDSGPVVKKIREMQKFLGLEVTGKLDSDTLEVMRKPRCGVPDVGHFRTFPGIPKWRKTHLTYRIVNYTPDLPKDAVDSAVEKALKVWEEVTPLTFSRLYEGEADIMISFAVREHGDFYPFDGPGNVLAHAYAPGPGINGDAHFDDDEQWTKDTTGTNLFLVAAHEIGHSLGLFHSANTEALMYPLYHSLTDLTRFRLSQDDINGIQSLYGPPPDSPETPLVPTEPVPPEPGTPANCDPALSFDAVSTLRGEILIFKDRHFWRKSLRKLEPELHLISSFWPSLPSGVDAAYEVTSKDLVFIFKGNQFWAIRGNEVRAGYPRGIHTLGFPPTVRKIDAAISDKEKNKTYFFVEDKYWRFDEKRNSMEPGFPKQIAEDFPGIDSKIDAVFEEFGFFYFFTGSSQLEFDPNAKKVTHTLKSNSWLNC

Mus musculus [18] = assay: Antifibrotic activity in C57BL/6N mouse model of bleomycin-induced idiopathic pulmonary fibrosis assessed as reduction of total collagen content at 0.03 to 1 mg/kg/day, sc via osmotic pumps dosed for 14 days; format: functional, organism-based; conditions: dose 0.03-1 mg/kg/day, time 14.0 day
HepG2 [19] = assay: Cytotoxicity against human HepG2 cells assessed as reduction in cell viability at 10 uM after 48 hrs by CCK8 assay; format: functional
[20] = biological target: Matrix metalloproteinase-9 (Homo sapiens, UniProt P14780)
Sequence of Matrix metalloproteinase-9 (P14780 whole entry): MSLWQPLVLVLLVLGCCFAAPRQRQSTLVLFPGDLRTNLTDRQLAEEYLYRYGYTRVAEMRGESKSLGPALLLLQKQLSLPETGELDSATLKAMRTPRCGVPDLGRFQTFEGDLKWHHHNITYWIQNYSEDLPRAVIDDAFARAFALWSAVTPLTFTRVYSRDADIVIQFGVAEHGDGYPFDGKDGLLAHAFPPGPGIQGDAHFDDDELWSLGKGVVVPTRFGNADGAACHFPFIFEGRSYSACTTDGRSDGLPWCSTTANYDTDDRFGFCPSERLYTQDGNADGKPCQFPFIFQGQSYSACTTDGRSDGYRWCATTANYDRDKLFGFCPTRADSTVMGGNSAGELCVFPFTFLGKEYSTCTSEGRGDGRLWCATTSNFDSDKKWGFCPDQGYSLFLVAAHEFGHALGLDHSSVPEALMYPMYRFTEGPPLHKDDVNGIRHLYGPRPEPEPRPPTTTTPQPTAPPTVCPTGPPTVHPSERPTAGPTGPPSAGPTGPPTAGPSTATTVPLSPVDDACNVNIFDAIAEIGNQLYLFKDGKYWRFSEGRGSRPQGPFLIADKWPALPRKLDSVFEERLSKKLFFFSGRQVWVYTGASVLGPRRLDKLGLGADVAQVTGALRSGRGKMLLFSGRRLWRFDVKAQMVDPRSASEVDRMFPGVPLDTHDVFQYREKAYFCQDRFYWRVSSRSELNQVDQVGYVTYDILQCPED

[21] = Metabolic stability in rat hepatocytes assessed as parent compound remaining incubated for 1 hr by LC-MS/MS; format: ADME, cell-based, Hepatocyte; conditions: read-out: Stability
[22] = Protein binding in mouse serum assessed as free fraction at 10 ug/ml incubated for 6 hrs by equilibrium dialysis based LC-MS/MS assay; format: ADME, cell-free; conditions: at 10 µg/mL
[23] = Free drug concentration in C57BL/6N mouse plasma at 0.03 mg/kg/day, sc via osmotic pumps dosed for 14 days; format: ADME, organism-based; conditions: in vivo, 336 h, time 14 day

Question: With `CC(C)C[C@H](NC(=O)[C@H](CCN)NC(=O)[C@H](CC(=O)O)NC(=O)[C@H](CCC(=O)O)NC(=O)CCCCNC(=O)c1ccc(Oc2ccc(C(N)=O)cc2)cc1)C(=O)N(C)[C@@H](CCC(=O)O)C(=O)N1CCC[C@H]1CC(N)=O` ({Benzoyl(4-OPh(4-CONH2))-Ava}-ED[Dab]L[NMeE][β3hP]-NH2) as the molecule, how does the solubility [1] read?
Answer: > 18.2 mg/mL

Question: What about the inhibition at 5 min, 10 µM (CYP2C9) of the same molecule?
Answer: 1.6%

Question: And the inhibition at 5 min, 10 µM (CYP3A4)?
Answer: -2.4%

Question: And the IC50 (Neutrophil collagenase)?
Answer: 3.72 µM

Question: And the remaining at 336 h (physchem [2])?
Answer: 95.4%

Question: What about the fraction unbound at 6 h, 10 ug/ml [3] of the same molecule?
Answer: 0.552

Question: And the IC50 (Matrilysin)?
Answer: > 10 µM

Question: What about the IC50 (Interstitial collagenase) of the same molecule?
Answer: > 10 µM

Question: What about the inhibition at 10 min, 10 µM (CYP2C19) of the same molecule?
Answer: -9.1%

Question: What about the solubility [4] of the same molecule?
Answer: > 167 mg/mL

Question: And the remaining at 336 h [5]?
Answer: 88%

Question: And the Activity (Mus musculus [6])?
Answer: Active

Question: And the Activity (HepG2 [7])?
Answer: -0.9%

Question: And the IC50 [8]?
Answer: 2.22 µM

Question: And the IC50 [9]?
Answer: > 100 µM

Question: And the inhibition at […], 10 µM (CYP1A2)?
Answer: -4.2%

Question: And the half-life [10]?
Answer: 14 min

Question: What about the remaining at 1 h [11] of the same molecule?
Answer: 101%

Question: What about the Vd [12] of the same molecule?
Answer: 0.233 L/kg

Question: And the remaining at 336 h (physchem [13])?
Answer: 95.1%

Question: What about the inhibition at 10 min, 10 µM (CYP2D6) of the same molecule?
Answer: -2.5%

Question: What about the remaining at 6 h [14] of the same molecule?
Answer: 110%

Question: What about the solubility [15] of the same molecule?
Answer: > 24.2 mg/mL

Question: What about the clearance [16] of the same molecule?
Answer: 11.7 mL/min/kg

Question: And the logD (physchem [17])?
Answer: -0.21

Question: What about the IC50 (Stromelysin-1) of the same molecule?
Answer: > 10 µM

Question: What about the Activity (Mus musculus [18]) of the same molecule?
Answer: Active

Question: And the Activity (HepG2 [19])?
Answer: 1.1%

Question: What about the IC50 [20] of the same molecule?
Answer: > 8.51 µM

Question: And the remaining at 1 h, 1 µM [21]?
Answer: 98.2%

Question: And the fraction unbound at 6 h, 10 ug/ml [22]?
Answer: 0.518

Question: What about the “Cp(f)” value [23] of the same molecule?
Answer: 0.48 nM

Reference: ChEMBL document CHEMBL5154944, “Discovery of Aryloxyphenyl-Heptapeptide Hybrids as Potent and Selective Matrix Metalloproteinase-2 Inhibitors for the Treatment of Idiopathic Pulmonary Fibrosis” (J Med Chem, 2022)
